The target in one experiment is T1, CaM (Bos taurus, UniProt P62157).
T1 construct: made in house; host or cells: E. coli BL21 (DE3)
Description: Pull-down assay with immobilized protein and LSM libraries. Type of experiment: binding, bovine. To be noted: 1:2 stoichiometry assumed, read-out: Surface mapping KD (apparent). The essentials:
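CaM buffer was 20 mM HEPES pH 7.4, 150 mM NaCl, 5 mM CaCl2. LSM sublibrary members ([…]) incubated 30 min, RT, with equimolar His-tagged protein on Co-NTA resin. HPLC-MS measured unbound probes; bound fraction relative to resin-only background gave dissociation constants.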

The target of experiment [1] is T2, Gal-1 (Homo sapiens, UniProt P09382).
T2 construct: made in house; host or cells: E. coli BL21(DE3)
T2 sequence (P09382 whole entry): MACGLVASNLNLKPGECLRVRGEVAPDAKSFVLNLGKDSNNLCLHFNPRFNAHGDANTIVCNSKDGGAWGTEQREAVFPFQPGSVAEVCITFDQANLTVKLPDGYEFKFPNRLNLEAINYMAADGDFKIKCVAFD
The experiment is described as above. The note with it: 1:1 binding assumed, read-out: Surface mapping KD (apparent). Type of experiment: binding. The essentials: (§1)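 Buffers were HEPES pH 7.4 with 150 mM NaCl, plus 1 mM TCEP and 1 mM CaCl2 (50 mM HEPES) for S100A4 and S100B, 1 mM TCEP for Gal-1, and no additive for RecQ-WH. Immobilized protein at 64 µM was equilibrated 30 min with the LSM sublibrary, and unbound probes were measured by LC-MS.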

The next experiment has as its target T3, S100B (Homo sapiens, UniProt P04271).
T3 construct: made in house; host or cells: Escherichia coli BL21(DE3)
T3 sequence (P04271 1-92): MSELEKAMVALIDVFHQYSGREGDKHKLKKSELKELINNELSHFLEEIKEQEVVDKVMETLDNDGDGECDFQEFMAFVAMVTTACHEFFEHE
The experiment is described as above. Type of experiment: binding. The note with it: 1:1 binding assumed, read-out: Surface mapping KD (apparent). The essentials: as §1

A further experiment addresses T4, RecQ-WH (Escherichia coli, UniProt P15043).
T4 construct: coding for residues 408– 523 of E. coli RecQ; made in house; host or cells: E. coli BL21(DE3)
The experiment is described as above. To be noted: 1:1 binding assumed, read-out: Surface mapping KD (apparent). The arrangement: species or system E. coli. The procedure:
Pull-down assays with immobilized test proteins and foldameric LSM libraries were carried out. Proteins were equilibrated with LSM probes, and equilibrium bound fractions (FB) were determined from the unbound fractions measured by HPLC-MS methods. Hits were corrected with background binding of the resin. The protocol allowed all binding events to equilibrate irrespective of affinity, specificity, and binding kinetics. This was essential to judge overall druggability and promiscuity. Importantly, the concentration of protein and the total concentration of foldameric LSMs were equimolar, which minimized competition between the probes. This experimental setup approximated independent binding of individual library members. Results were visualized as heat maps of dissociation constants (Fig. 3).
Pull-down assay and data analysis
Pull-down assay. LSM sublibraries were screened separately as previously described.(2) Experiments were performed in the following buffers: (i) 20 mM pH 7.4 HEPES, 150 mM NaCl, 5 mM CaCl2 for CaM; (ii) 50 mM pH 7.4 HEPES, 150 mM NaCl, 1 mM TCEP, 1 mM CaCl2 for S100 proteins; (iii) 20 mM pH 7.4 HEPES, 150 mM NaCl, 1 mM TCEP for Gal-1 and (iv) 20 mM pH 7.4 HEPES, 150 mM NaCl for RecQ-WH. Assays were performed in paper filter spin cups (Thermo Scientific) with sample volumes of 100 µl. Hexahistidine-tagged proteins were immobilized on previously washed Co-NTA resin (TALON, Takara Bio USA, Inc., Mountain View, CA) in 64 µM final concentration. LSM sublibrary was added, in which each of the 64 library members were used at a concentration of 1 µM. Samples were incubated at room temperature for 30 min with shaking at 100 rpm. Then, samples were centrifuged at 1000 rpm for 2 min and washed with 100 µl pull-down buffer to remove unbound compounds.
The control experiments were performed using the same compounds and the resin but without the immobilized protein. In case of competitive assays, competitor peptides were added to LSM sublibrary samples in 200 µM final concentration. In the case of Gal-1, lactose (competitor) was used in a concentration of 10 mM. Experiments were performed at least twice. Mean […]
LC-MS methods and parameters. HPLC/ESI-MS analysis was used to characterize the samples from the pull-down assay. LC-MS analysis was performed with a Thermo Scientific Dionex UltiMate 3000 HPLC system interfaced to an LTQ ion trap mass spectrometer (Thermo Electron Corp., San Jose, CA, USA). Samples were injected onto an Aeris Widepore XB-C18 (250 x 4.6 mm) analytical HPLC column using gradient elution 5-80 % solution B during 25 minutes. For pull-down samples, eluent composition was 0.1% acetic acid in distilled water (Solution A) and 0.1% acetic acid in acetonitrile (solution B). Mass spectra were acquired in full scan mode from 200 to 2000 m/z range. For overlapping peaks, selective reaction monitoring (SRM) was […]
MS data analysis. Thermo Xcalibur 2.2 software was used for peak identification and integration. The majority of the foldameric fragments could be resolved independently via HPLC-MS/MS measurements based on molecular weight, MS fragmentation pattern and retention time. Peaks of some foldamers with β3-hIle or β3-hLeu in position R2 could not be resolved, these were integrated and averaged. In the processing method, each sample component was associated to a chromatographic peak based on previously identified mass (m/z) and retention time (ref (2) and Table S7-10). Using ICIS peak detection algorithm, the general detection and integration criteria were: smoothing points: 5, baseline window: 80, area noise factor: 5, peak noise factor: 10. Using these processing setups, all raw data files were reprocessed together and analyzed. Errors in peak identification during the automatic processing were corrected manually.
Calculation of the discussed parameters
1. Bound fractions (FB.) were calculated from the HPLC-MS intensity loss of the LSM probes compared to the control where no protein was immobilized to the resin: […]

The target in a further experiment is T5, S100A4 (Homo sapiens, UniProt P26447).
T5 construct: made in house; host or cells: Escherichia coli BL21(DE3)
T5 sequence (P26447 whole entry): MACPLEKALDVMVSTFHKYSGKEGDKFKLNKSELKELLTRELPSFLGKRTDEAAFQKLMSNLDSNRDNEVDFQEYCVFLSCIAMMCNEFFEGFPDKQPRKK
The experiment is described as above. Type of experiment: binding. To be noted: 1:1 binding assumed, read-out: Surface mapping KD (apparent). The essentials:
as §1

Experiment [2] has as its target T2, Gal-1. Description: Competition pull-down with lactose. The note with it: H14 library; lactose 10 mM; read-out: Surface mapping KD (apparent), competition. Type of experiment: binding. The gist of the method: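 His6-tagged proteins immobilized on Co-NTA resin at 64 µM final with 64-member LSM foldamer sublibraries (1 M each, as printed) in pH 7.4 HEPES/NaCl buffers (Ca2+/TCEP per target), 30 min RT; competitor peptides 200 µM final, lactose 10 mM for Gal-1. Bound fractions from LC-MS loss vs protein-free resin; KD assuming 1:1 binding.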

Molecules are shown by their SMILES. Where two headings read alike, the source gives them in different places.

T4 sequence (P15043 408-523): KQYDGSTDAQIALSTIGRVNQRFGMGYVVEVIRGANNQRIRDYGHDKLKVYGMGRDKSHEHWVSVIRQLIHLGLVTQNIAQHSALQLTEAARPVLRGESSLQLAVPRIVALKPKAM

As to `N=C(N)NCCC[C@@H](CC(=O)N[C@H]1CCC[C@@H]1C(=O)N[C@H]1CCC[C@@H]1C(N)=O)NC(=O)[C@H]1CCC[C@@H]1NC(=O)[C@H]1CCC[C@@H]1NC(=O)C[C@H](Cc1ccccc1)NC(=O)[C@H]1CCC[C@@H]1NC(=O)[C@H]1CCC[C@@H]1N` [H12 FR], the Kd is 125 µM on CaM (H12 library), 141 µM at Gal-1 [1] (H12 library), 28 µM on S100B (H12 library) and 388 µM at RecQ-WH (H12 library).

Take `N=C(N)NCCC[C@@H](CC(=O)N[C@H]1CCC[C@@H]1C(=O)N[C@H]1CCC[C@@H]1C(N)=O)NC(=O)[C@H]1CCC[C@@H]1NC(=O)[C@H]1CCC[C@@H]1NC(=O)C[C@H](Cc1c[nH]c2ccccc12)NC(=O)[C@H]1CCC[C@@H]1NC(=O)[C@H]1CCC[C@@H]1N` [H12 WR]: the Kd at CaM (H12 library) was found to be 226 µM; on S100A4 (H12 library) it was 326 µM; on S100B (H12 library) it was 15 µM; at RecQ-WH (H12 library), 206 µM.

Turning to `NCCCC[C@@H](CC(=O)N[C@H]1CCC[C@@H]1C(=O)N[C@H]1CCC[C@@H]1C(N)=O)NC(=O)[C@H]1CCC[C@@H]1NC(=O)[C@H]1CCC[C@@H]1NC(=O)C[C@H](Cc1ccc(O)cc1)NC(=O)[C@H]1CCC[C@@H]1NC(=O)[C@H]1CCC[C@@H]1N` [H12 YK], the Kd on CaM (H12 library) was 42 µM; on Gal-1 [1] (H12 library), 371 µM; on S100B (H12 library), 86 µM; at RecQ-WH (H12 library) it was 280 µM.

Turning to `CC[C@H](C)[C@@H](CC(=O)N[C@H]1CCCC[C@@H]1C(N)=O)NC(=O)[C@H]1CCCC[C@@H]1NC(=O)[C@H]1CCCC[C@@H]1NC(=O)C[C@H](CC(=O)O)NC(=O)[C@H]1CCCC[C@@H]1N` [H14 DI], the Kd at RecQ-WH (H14 library) came out at 429 µM; at Gal-1 [2], 408 µM.

On to `NCCCC[C@@H](CC(=O)N[C@H]1CCCC[C@@H]1C(N)=O)NC(=O)[C@H]1CCCC[C@@H]1NC(=O)[C@H]1CCCC[C@@H]1NC(=O)C[C@H](CC(=O)O)NC(=O)[C@H]1CCCC[C@@H]1N` [H14 DK], for which the Kd at S100B (H14 library) came out at 144 µM; at RecQ-WH (H14 library), 314 µM; at Gal-1 [2] it was 405 µM.

Consider `CC(C)C[C@@H](CC(=O)N[C@H]1CCCC[C@@H]1C(N)=O)NC(=O)[C@H]1CCCC[C@@H]1NC(=O)[C@H]1CCCC[C@@H]1NC(=O)C[C@H](CC(=O)O)NC(=O)[C@H]1CCCC[C@@H]1N` [H14 DL], for which the Kd on RecQ-WH (H14 library) amounted to 429 µM; on Gal-1 [2], 408 µM.

`NC(=O)[C@H]1CCCC[C@@H]1NC(=O)C[C@H](Cc1c[nH]c2ccccc12)NC(=O)[C@H]1CCCC[C@@H]1NC(=O)[C@H]1CCCC[C@@H]1NC(=O)C[C@H](CCC(=O)O)NC(=O)[C@H]1CCCC[C@@H]1N` [H14 EW]: the Kd on S100B (H14 library) was 305 µM; at RecQ-WH (H14 library) it was 212 µM; on Gal-1 [2] it was 458 µM.

Turning to `CSCC[C@@H](CC(=O)N[C@H]1CCCC[C@@H]1C(=O)N[C@H]1CCCC[C@@H]1C(=O)N[C@@H](CCCNC(=N)N)CC(=O)N[C@H]1CCCC[C@@H]1C(N)=O)NC(=O)[C@H]1CCCC[C@@H]1N` [H14 MR], the Kd at CaM (H14 library) turned out to be 19 µM; at Gal-1 [1] (H14 library), 395 µM; on S100A4 (H14 library) it was 247 µM; at S100B (H14 library), 92 µM; on RecQ-WH (H14 library), 457 µM; on Gal-1 [2], 310 µM.

Take `CC[C@H](C)[C@@H](CC(=O)N[C@H]1CCCC[C@@H]1C(N)=O)NC(=O)[C@H]1CCCC[C@@H]1NC(=O)[C@H]1CCCC[C@@H]1NC(=O)C[C@H](CCCNC(=N)N)NC(=O)[C@H]1CCCC[C@@H]1N` [H14 RI]: the Kd on CaM (H14 library) amounted to 10 µM; on S100A4 (H14 library), 51 µM; on S100B (H14 library) it was 31 µM; on RecQ-WH (H14 library), 237 µM.

Take `CC(C)C[C@@H](CC(=O)N[C@H]1CCCC[C@@H]1C(N)=O)NC(=O)[C@H]1CCCC[C@@H]1NC(=O)[C@H]1CCCC[C@@H]1NC(=O)C[C@H](CCCNC(=N)N)NC(=O)[C@H]1CCCC[C@@H]1N` [H14 RL]: the Kd stood at 10 µM at CaM (H14 library), 51 µM at S100A4 (H14 library), 31 µM on S100B (H14 library) and 237 µM at RecQ-WH (H14 library).

On to `CSCC[C@@H](CC(=O)N[C@H]1CCCC[C@@H]1C(N)=O)NC(=O)[C@H]1CCCC[C@@H]1NC(=O)[C@H]1CCCC[C@@H]1NC(=O)C[C@H](CCCNC(=N)N)NC(=O)[C@H]1CCCC[C@@H]1N` [H14 RM], for which the Kd is 30 µM on CaM (H14 library), 94 µM on S100A4 (H14 library), 79 µM at S100B (H14 library) and 294 µM at RecQ-WH (H14 library).

For `N=C(N)NCCC[C@@H](CC(=O)N[C@H]1CCCC[C@@H]1C(=O)N[C@H]1CCCC[C@@H]1C(=O)N[C@H](CC(=O)N[C@H]1CCCC[C@@H]1C(N)=O)Cc1c[nH]c2ccccc12)NC(=O)[C@H]1CCCC[C@@H]1N` [H14 RW], the Kd on CaM (H14 library) was 0.6 µM; on S100A4 (H14 library) it was 56 µM; on S100B (H14 library), 13 µM; at RecQ-WH (H14 library), 201 µM.

`NC(=O)[C@H]1CCCC[C@@H]1NC(=O)C[C@H](Cc1ccccc1)NC(=O)[C@H]1CCCC[C@@H]1NC(=O)[C@H]1CCCC[C@@H]1NC(=O)C[C@H](CO)NC(=O)[C@H]1CCCC[C@@H]1N` [H14 SF]: the Kd amounted to 30 µM at CaM (H14 library); 267 µM at Gal-1 [1] (H14 library); 71 µM on S100A4 (H14 library); 105 µM on S100B (H14 library); 182 µM on RecQ-WH (H14 library); 312 µM on Gal-1 [2].

As to `NC(=O)[C@H]1CCCC[C@@H]1NC(=O)C[C@H](CCC(=O)O)NC(=O)[C@H]1CCCC[C@@H]1NC(=O)[C@H]1CCCC[C@@H]1NC(=O)C[C@H](Cc1c[nH]c2ccccc12)NC(=O)[C@H]1CCCC[C@@H]1N` [H14 WE], the Kd at CaM (H14 library) was determined as 191 µM; at S100A4 (H14 library), 428 µM; at RecQ-WH (H14 library), 137 µM.

Consider `NCCCC[C@@H](CC(=O)N[C@H]1CCCC[C@@H]1C(N)=O)NC(=O)[C@H]1CCCC[C@@H]1NC(=O)[C@H]1CCCC[C@@H]1NC(=O)C[C@H](Cc1ccc(O)cc1)NC(=O)[C@H]1CCCC[C@@H]1N` [H14 YK], for which the Kd worked out at 17 µM at CaM (H14 library), 146 µM on S100A4 (H14 library), 89 µM at S100B (H14 library) and 411 µM at RecQ-WH (H14 library).

The values are drawn from PMC8162404, “Proteomimetic surface fragments distinguish targets by function” (Chemical Science, 2020).
